Measurements: US11970511B2, “Tetrahydropyran-based thiodisaccharide mimics as Galectin-3 inhibitors” (BRISTOL-MYERS SQUIBB COMPANY, priority 2018, dated 2024)

molecular target: His-tagged recombinant human Gal-3 (hGal-3) (Homo sapiens, UniProt P17931); assay: Gal-3 HTRF assay: His-tagged hGal-3 binding to B-ASF, Anti-His terbium antibody / Streptavidin d2 detection; settings: 15 nM hGal-3, 15 nM B-ASF, three replicates, room temperature;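 further: compound preincubated 30 min with hGal-3, then 1 h with B-ASF, DMSO wells with B-ASF serving as positive control and those lacking B-ASF as negative control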
Sequence (P17931 whole entry): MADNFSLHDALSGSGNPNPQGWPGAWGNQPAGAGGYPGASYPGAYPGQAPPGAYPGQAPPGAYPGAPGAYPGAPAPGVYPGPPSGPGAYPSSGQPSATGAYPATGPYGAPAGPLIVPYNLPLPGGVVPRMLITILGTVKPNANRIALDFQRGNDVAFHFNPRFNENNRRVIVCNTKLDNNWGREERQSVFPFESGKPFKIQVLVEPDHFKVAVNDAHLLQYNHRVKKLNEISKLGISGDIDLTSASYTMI

SMILES	IC50 [nM]
CO[C@@H]1[C@@H](n2cc(-c3ccc4nccnc4c3)nn2)[C@@H](O)[C@@H](CO)O[C@H]1S[C@@H]1COC[C@H](n2cc(-c3ccccc3)nn2)[C@H]1O [Example A8, (2R,3R,4S,5R,6S)-6-(((3R,4R,5S)-4-hydroxy-5-(4-phenyl-1H-1,2,3-triazol-1-yl)tetrahydro-2H-pyran-3-yl)thio)-2-(hydroxymethyl)-5-methoxy-4-(4-(quinoxalin-6-yl)-1H-1,2,3-triazol-1-yl)tetrahydro-2H-pyran-3-ol]	170
CO[C@@H]1[C@@H](n2cc(-c3ccnnc3)nn2)[C@@H](O)[C@@H](CO)O[C@H]1S[C@@H]1COC[C@H](n2cc(-c3ccccc3)nn2)[C@H]1O [Example A9, (2R,3R,4S,5R,6S)-6-(((3R,4R,5S)-4-hydroxy-5-(4-phenyl-1H-1,2,3-triazol-1-yl)tetrahydro-2H-pyran-3-yl)thio)-2-(hydroxymethyl)-5-methoxy-4-(4-(pyridazin-4-yl)-1H-1,2,3-triazol-1-yl)tetrahydro-2H-pyran-3-ol]	1240
CO[C@@H]1[C@@H](n2cc(-c3ccc4ccccc4c3)nn2)[C@@H](O)[C@@H](CO)O[C@H]1S[C@@H]1COC[C@H](n2cc(-c3ccccc3)nn2)[C@H]1O [Example A10, (2R,3R,4S,5R,6S)-6-(((3R,4R,5S)-4-hydroxy-5-(4-phenyl-1H-1,2,3-triazol-1-yl)tetrahydro-2H-pyran-3-yl)thio)-2-(hydroxymethyl)-5-methoxy-4-(4-(naphthalen-2-yl)-1H-1,2,3-triazol-1-yl)tetrahydro-2H-pyran-3-ol]	330
COC(=O)C12CCC(c3cn(C4C(O)C(CO)OC(SC5COCC(n6cc(-c7ccccc7)nn6)C5O)C4OC)nn3)(CC1)CC2 [Example A11, methyl 4-(1-((2R,3R,4S,5R,6S)-3-hydroxy-6-(((3R,4R,5S)-4-hydroxy-5-(4-phenyl-1H)-1,2,3-triazol-1-yl)tetrahydro-2H-pyran-3-yl)thio)-2-(hydroxymethyl)-5-methoxytetrahydro-2H-pyran-4-yl)-1H-1,2,3-triazol-4-yl)bicyclo[2.2.2]octane-1-carboxylate]	1860
CO[C@@H]1[C@@H](NC(=O)c2cc(F)c(F)c(F)c2)[C@@H](O)[C@@H](CO)O[C@H]1S[C@@H]1COC[C@H](n2cc(-c3ccccc3)nn2)[C@H]1O [Example A12, 3,4,5-trifluoro-N-((2R,3R,4S,5R,6S)-3-hydroxy-6-(((3R,4R,5S)-4-hydroxy-5-(4-phenyl-1H-1,2,3-triazol-1-yl)tetrahydro-2H-pyran-3-yl)thio)-2-(hydroxymethyl)-5-methoxytetrahydro-2H-pyran-4-yl)benzamide]	1400
COc1c(F)c(F)c(C(=O)N[C@H]2[C@@H](O)[C@@H](CO)O[C@@H](S[C@@H]3COC[C@H](n4cc(-c5ccccc5)nn4)[C@H]3O)[C@@H]2OC)c(F)c1F [Example A13, 2,3,5,6-tetrafluoro-N-((2R,3R,4S,5R,6S)-3-hydroxy-6-(((3R,4R,5S)-4-hydroxy-5-(4-phenyl-1H-1,2,3-triazol-1-yl)tetrahydro-2H-pyran-3-yl)thio)-2-(hydroxymethyl)-5-methoxytetrahydro-2H-pyran-4-yl)-4-methoxybenzamide]	570

The next lines start with the values.

IC50 [nM]	SMILES
67	COC1C(SC2CNCC(n3cc(-c4cccc(F)c4)nn3)C2O)OC(CO)C(O)C1n1cc(-c2cc(F)c(F)c(F)c2)nn1 (stereo not shown) [Example B1]
37	COC1C(SC2CN(C(C)=O)CC(n3cc(-c4cccc(F)c4)nn3)C2O)OC(CO)C(O)C1n1cc(-c2cc(F)c(F)c(F)c2)nn1 (stereo not shown) [Example B2]
54	COC1C(SC2CN(C(C)=O)CC(n3cc(-c4cccc(F)c4)nn3)C2O)OC(CO)C(O)C1n1cc(-c2cccc(F)c2)nn1 [Example B3, 1-((3S,4R,5R)-3-(4-(3-fluorophenyl)-1H-1,2,3-triazol-1-yl)-5-(((2S,3R,4S,5R,6R)-4-(4-(3-fluorophenyl)-1H-1,2,3-triazol-1-yl)-5-hydroxy-6-(hydroxymethyl)-3-methoxytetrahydro-2H-pyran-2-yl)thio)-4-hydroxypipeddin-1-yl)ethan-1-one]
32	CC(=O)N1C[C@@H](S[C@@H]2O[C@H](CO)[C@H](O)[C@H](n3cc(-c4cc(F)c(F)c(F)c4)nn3)[C@H]2OCC(=O)O)[C@H](O)[C@@H](n2cc(-c3cccc(F)c3)nn2)C1 [Example B4, 2-(((2S,3R,4S,5R,6R)-2-(((3R,4R,5S)-1-acetyl-5-(4-(3-fluorophenyl)-1H-1,2,3-triazol-1-yl)-4-hydroxypiperidin-3-yl)thio)-5-hydroxy-6-(hydroxymethyl)-4-(4-(3,4,5-trifluorophenyl)-1H-1,2,3-triazol-1-yl)tetrahydro-2H-pyran-3-yl)oxy)acetic acid]
